Data: PubChem BioAssay (NCI)
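Tested at 5 concentrations; 48 h exposure; 96-well plates; endpoints linearly interpolated, else capped at highest concentration. GI50 is the concentration that inhibits growth by half. At the TGI there is no net growth.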

Experiments:
Experiment in all cases: NCI anticancer screen, dose series, 48 h
786-0 renal = tested on: 786-0 renal
A498 renal = tested on: A498 renal
A549 NSCLC = tested on: A549 NSCLC
ACHN renal = tested on: ACHN renal
BT-549 breast = tested on: BT-549 breast
CAKI-1 renal = tested on: CAKI-1 renal
CCRF-CEM leukemia = tested on: CCRF-CEM leukemia
COLO 205 colon = tested on: COLO 205 colon
DU-145 prostate = tested on: DU-145 prostate
EKVX NSCLC = tested on: EKVX NSCLC
HCC-2998 colon = tested on: HCC-2998 colon
HCT-116 colon = tested on: HCT-116 colon
HCT-15 colon = tested on: HCT-15 colon
HL-60(TB) leukemia = tested on: HL-60(TB) leukemia
HOP-62 NSCLC = tested on: HOP-62 NSCLC
HOP-92 NSCLC = tested on: HOP-92 NSCLC
HS 578T breast = tested on: HS 578T breast
HT29 colon = tested on: HT29 colon
IGROV1 ovarian = tested on: IGROV1 ovarian
K-562 leukemia = tested on: K-562 leukemia
KM12 colon = tested on: KM12 colon
LOX IMVI melanoma = tested on: LOX IMVI melanoma
M14 melanoma = tested on: M14 melanoma
MALME-3M melanoma = tested on: MALME-3M melanoma
MCF7 breast = tested on: MCF7 breast
MDA-MB-231 breast = tested on: MDA-MB-231 breast
MDA-MB-435 = tested on: MDA-MB-435
MDA-MB-468 breast = tested on: MDA-MB-468 breast
MOLT-4 leukemia = tested on: MOLT-4 leukemia
NCI-H226 lung = tested on: NCI-H226 lung

SMILES: O=c1cc(-c2ccccc2)oc2cc(OCCCC[P+](c3ccccc3)(c3ccccc3)c3ccccc3)cc(O)c12
- GI50 (786-0 renal): 1860 nM
- TGI (786-0 renal): 3840 nM
- GI50 (A498 renal): 2030 nM
- TGI (A498 renal): 5590 nM
- GI50 (A549 NSCLC): 2820 nM
- TGI (A549 NSCLC): 16500 nM
- GI50 (ACHN renal): 996 nM
- TGI (ACHN renal): 2390 nM
- GI50 (BT-549 breast): 542 nM
- TGI (BT-549 breast): 1740 nM
- GI50 (CAKI-1 renal): 1630 nM
- TGI (CAKI-1 renal): 4340 nM
- GI50 (CCRF-CEM leukemia): 826 nM
- TGI (CCRF-CEM leukemia): 4750 nM
- GI50 (COLO 205 colon): 1470 nM
- TGI (COLO 205 colon): 3010 nM
- GI50 (DU-145 prostate): 813 nM
- TGI (DU-145 prostate): 2970 nM
- GI50 (EKVX NSCLC): 494 nM
- TGI (EKVX NSCLC): 1860 nM
- GI50 (HCC-2998 colon): 412 nM
- TGI (HCC-2998 colon): 1540 nM
- GI50 (HCT-116 colon): 863 nM
- TGI (HCT-116 colon): 2120 nM
- GI50 (HCT-15 colon): 1020 nM
- TGI (HCT-15 colon): 2480 nM
- GI50 (HL-60(TB) leukemia): 246 nM
- TGI (HL-60(TB) leukemia): 1820 nM
- GI50 (HOP-62 NSCLC): 1420 nM
- TGI (HOP-62 NSCLC): 2870 nM
- GI50 (HOP-92 NSCLC): 292 nM
- TGI (HOP-92 NSCLC): 1130 nM
- GI50 (HS 578T breast): 1320 nM
- TGI (HS 578T breast): 4270 nM
- GI50 (HT29 colon): 2600 nM
- TGI (HT29 colon): 11300 nM
- GI50 (IGROV1 ovarian): 785 nM
- TGI (IGROV1 ovarian): 2360 nM
- GI50 (K-562 leukemia): 326 nM
- TGI (K-562 leukemia): > 100000 nM
- GI50 (KM12 colon): 738 nM
- TGI (KM12 colon): 2130 nM
- GI50 (LOX IMVI melanoma): 1130 nM
- TGI (LOX IMVI melanoma): 2360 nM
- GI50 (M14 melanoma): 408 nM
- TGI (M14 melanoma): 1540 nM
- GI50 (MALME-3M melanoma): 397 nM
- TGI (MALME-3M melanoma): 1190 nM
- GI50 (MCF7 breast): 499 nM
- TGI (MCF7 breast): 2280 nM
- GI50 (MDA-MB-231 breast): 1070 nM
- TGI (MDA-MB-231 breast): 2570 nM
- GI50 (MDA-MB-435): 356 nM
- TGI (MDA-MB-435): 1390 nM
- GI50 (MDA-MB-468 breast): 148 nM
- TGI (MDA-MB-468 breast): 433 nM
- GI50 (MOLT-4 leukemia): 771 nM
- TGI (MOLT-4 leukemia): 3240 nM
- GI50 (NCI-H226 lung): 1500 nM
